Data published in US11358949B2, “Carbamate and urea compounds as multikinase inhibitors” (ANGEX PHARMACEUTICAL, INC., priority 2017, dated 2022).

Experiments:
AXL = target: T1, AXL (Homo sapiens, UniProt P30530); assay: HotSpot Kinase Assay, AXL
T1 sequence (P30530 26-894): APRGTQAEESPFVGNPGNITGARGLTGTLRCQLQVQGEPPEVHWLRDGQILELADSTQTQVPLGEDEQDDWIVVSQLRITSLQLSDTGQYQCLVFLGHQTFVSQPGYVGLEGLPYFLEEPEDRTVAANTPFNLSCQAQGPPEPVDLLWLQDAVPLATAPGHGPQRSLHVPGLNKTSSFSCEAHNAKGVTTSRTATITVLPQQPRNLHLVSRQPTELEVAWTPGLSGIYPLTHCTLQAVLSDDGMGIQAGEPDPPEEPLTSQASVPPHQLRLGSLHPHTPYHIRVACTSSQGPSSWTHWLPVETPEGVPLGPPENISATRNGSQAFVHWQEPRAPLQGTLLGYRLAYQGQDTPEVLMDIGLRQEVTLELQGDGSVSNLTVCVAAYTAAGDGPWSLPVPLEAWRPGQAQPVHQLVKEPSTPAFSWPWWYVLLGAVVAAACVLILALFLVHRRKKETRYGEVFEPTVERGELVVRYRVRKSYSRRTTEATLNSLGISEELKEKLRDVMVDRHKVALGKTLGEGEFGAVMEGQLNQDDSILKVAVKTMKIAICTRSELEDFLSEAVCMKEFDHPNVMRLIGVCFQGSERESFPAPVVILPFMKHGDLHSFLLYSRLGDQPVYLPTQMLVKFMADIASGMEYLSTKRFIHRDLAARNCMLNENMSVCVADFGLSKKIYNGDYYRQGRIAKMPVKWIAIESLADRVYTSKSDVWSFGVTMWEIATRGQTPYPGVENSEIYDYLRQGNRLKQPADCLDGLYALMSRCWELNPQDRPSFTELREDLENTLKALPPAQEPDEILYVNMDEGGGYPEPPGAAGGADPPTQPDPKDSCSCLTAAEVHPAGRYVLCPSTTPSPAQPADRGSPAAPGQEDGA
Method: (§1) Specifically, for each reaction, kinase and substrate were mixed in a pH 7.5 buffer containing 20 mM HEPES, 10 mM MgCl2, 1 mM EGTA [Ethylene glycol-bis(2-aminoethylether)-N,N,N′,N′-tetraacetic acid], 0.02% Brij35, 0.02 mg/mL BSA (Bovine Serum Albumin), 0.1 mM Na3VO4, 2 mM DTT, and 1% DMSO. Compounds were then added to each reaction mixture. After a 20-min incubation, ATP (Sigma-Aldrich) and [γ-^33P] ATP (PerkinElmer) were added at a final total concentration of 100 μM. Reactions were carried out at room temperature for 2 hours and spotted onto P81 ion exchange cellulose chromatography paper (Whatman). […] The percent remaining kinase activity relative to a vehicle-containing (DMSO) kinase reaction was calculated for each kinase/inhibitor pair. […] IC50 values were calculated using Prism 5 (GraphPad).

FMS = FMS (Homo sapiens, UniProt P07333); assay: HotSpot Kinase Assay, FMS
Chain of FMS (P07333 20-972): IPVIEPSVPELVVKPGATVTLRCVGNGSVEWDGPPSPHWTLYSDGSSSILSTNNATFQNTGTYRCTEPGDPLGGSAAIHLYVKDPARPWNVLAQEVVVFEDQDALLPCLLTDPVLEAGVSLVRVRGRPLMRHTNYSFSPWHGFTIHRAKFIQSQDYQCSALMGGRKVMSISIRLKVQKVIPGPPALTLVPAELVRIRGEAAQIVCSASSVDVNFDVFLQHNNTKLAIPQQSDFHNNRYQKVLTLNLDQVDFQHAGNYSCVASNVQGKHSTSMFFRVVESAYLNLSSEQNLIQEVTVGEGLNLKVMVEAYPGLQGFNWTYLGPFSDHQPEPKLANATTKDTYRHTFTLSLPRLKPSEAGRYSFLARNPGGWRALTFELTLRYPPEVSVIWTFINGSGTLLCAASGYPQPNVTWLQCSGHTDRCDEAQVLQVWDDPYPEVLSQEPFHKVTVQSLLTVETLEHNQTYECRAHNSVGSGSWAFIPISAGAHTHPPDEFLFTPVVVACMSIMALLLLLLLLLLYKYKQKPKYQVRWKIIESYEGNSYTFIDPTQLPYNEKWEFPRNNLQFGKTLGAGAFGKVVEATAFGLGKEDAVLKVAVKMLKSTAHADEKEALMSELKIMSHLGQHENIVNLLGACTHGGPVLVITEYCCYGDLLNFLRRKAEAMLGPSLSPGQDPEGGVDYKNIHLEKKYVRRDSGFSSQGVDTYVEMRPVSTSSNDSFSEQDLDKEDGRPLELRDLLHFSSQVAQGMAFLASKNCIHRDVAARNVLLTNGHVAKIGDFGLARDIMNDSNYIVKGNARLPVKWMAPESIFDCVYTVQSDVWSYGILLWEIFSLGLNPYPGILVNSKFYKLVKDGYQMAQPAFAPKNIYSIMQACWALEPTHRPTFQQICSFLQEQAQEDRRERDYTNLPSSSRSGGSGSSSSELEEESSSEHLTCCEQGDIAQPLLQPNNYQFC
Method: as §1

DDR1 = DDR1 (Homo sapiens, UniProt Q08345); assay: HotSpot Kinase Assay, DDR1
Chain of DDR1 (Q08345 19-913): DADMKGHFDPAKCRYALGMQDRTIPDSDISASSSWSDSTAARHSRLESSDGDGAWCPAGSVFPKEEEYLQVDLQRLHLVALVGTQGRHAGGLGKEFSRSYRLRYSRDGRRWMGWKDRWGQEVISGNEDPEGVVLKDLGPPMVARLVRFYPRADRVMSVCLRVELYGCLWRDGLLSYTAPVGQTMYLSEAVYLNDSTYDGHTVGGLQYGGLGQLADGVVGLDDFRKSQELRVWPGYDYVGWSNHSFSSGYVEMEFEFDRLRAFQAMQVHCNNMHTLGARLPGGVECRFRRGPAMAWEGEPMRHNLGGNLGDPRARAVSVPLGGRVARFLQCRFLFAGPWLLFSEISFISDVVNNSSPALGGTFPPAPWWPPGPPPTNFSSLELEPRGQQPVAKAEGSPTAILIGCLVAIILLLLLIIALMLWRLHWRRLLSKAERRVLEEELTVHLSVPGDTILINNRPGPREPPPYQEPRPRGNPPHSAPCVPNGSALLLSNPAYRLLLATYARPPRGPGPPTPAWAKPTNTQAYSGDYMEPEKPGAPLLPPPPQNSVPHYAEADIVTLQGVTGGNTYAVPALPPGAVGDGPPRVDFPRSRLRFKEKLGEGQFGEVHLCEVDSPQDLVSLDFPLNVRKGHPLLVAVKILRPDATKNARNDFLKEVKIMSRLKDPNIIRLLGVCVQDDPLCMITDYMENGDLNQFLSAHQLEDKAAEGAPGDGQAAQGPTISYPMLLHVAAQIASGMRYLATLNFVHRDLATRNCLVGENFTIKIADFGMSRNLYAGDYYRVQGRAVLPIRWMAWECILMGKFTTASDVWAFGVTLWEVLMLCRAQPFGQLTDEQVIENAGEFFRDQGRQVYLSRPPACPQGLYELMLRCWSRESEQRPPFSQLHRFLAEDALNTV
Method: as §1

c-Kit = c-Kit (Homo sapiens, UniProt P10721); assay: HotSpot Kinase Assay, c-Kit
Chain of c-Kit (P10721 26-976): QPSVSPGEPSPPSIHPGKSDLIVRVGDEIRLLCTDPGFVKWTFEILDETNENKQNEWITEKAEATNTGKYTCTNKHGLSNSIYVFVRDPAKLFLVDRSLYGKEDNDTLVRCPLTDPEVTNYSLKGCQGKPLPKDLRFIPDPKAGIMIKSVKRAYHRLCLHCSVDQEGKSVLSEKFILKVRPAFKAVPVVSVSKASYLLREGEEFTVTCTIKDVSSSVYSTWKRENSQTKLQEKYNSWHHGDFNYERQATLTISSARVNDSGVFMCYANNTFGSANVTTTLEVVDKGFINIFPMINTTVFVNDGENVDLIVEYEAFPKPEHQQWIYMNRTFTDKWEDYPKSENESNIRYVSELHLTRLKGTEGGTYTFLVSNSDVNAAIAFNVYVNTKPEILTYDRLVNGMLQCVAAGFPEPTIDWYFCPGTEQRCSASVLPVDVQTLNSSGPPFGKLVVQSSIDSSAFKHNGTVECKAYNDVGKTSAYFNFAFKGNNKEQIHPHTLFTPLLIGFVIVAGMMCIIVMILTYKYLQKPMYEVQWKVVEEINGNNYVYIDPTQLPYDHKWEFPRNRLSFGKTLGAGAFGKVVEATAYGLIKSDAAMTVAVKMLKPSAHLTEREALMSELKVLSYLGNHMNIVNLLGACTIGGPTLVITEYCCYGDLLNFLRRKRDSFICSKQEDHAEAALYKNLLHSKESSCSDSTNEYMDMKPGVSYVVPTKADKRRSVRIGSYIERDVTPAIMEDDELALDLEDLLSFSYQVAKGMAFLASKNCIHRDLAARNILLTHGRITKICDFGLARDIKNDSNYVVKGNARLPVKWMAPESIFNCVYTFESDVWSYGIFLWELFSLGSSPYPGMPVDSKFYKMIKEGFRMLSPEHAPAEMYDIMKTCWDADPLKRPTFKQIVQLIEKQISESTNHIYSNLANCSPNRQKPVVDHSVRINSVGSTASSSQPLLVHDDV
Method: as §1

c-MER = target: T2, c-MER (Homo sapiens, UniProt Q12866); assay: HotSpot Kinase Assay, c-MER
T2 sequence (Q12866 21-999): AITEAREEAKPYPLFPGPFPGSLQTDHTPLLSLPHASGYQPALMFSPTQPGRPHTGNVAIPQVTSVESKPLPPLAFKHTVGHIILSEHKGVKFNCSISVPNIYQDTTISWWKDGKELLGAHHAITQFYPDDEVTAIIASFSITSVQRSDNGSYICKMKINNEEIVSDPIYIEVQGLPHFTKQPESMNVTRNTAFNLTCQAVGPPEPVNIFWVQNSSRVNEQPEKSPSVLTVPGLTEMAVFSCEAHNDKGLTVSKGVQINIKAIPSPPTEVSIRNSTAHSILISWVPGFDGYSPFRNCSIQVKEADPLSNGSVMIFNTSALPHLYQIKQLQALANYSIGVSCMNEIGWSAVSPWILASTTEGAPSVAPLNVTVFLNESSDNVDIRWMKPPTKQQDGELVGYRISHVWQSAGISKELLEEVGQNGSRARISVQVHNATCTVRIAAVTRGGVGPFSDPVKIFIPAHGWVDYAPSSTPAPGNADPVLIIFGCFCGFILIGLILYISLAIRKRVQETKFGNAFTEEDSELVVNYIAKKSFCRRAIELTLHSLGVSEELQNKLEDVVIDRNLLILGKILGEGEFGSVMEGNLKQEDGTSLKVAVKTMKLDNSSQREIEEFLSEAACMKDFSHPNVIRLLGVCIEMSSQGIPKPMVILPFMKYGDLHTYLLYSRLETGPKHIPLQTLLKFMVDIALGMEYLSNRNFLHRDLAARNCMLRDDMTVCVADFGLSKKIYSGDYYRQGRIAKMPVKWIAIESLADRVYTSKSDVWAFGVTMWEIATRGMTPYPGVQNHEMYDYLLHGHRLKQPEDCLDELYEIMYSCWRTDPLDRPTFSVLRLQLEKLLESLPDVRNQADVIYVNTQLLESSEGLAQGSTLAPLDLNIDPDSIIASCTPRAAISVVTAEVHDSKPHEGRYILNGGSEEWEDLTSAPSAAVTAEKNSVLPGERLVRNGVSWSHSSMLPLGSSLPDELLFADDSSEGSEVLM
Method: as §1

c-MET = c-MET (Homo sapiens, UniProt P08581); assay: HotSpot Kinase Assay, c-MET
Chain of c-MET (P08581 25-1390): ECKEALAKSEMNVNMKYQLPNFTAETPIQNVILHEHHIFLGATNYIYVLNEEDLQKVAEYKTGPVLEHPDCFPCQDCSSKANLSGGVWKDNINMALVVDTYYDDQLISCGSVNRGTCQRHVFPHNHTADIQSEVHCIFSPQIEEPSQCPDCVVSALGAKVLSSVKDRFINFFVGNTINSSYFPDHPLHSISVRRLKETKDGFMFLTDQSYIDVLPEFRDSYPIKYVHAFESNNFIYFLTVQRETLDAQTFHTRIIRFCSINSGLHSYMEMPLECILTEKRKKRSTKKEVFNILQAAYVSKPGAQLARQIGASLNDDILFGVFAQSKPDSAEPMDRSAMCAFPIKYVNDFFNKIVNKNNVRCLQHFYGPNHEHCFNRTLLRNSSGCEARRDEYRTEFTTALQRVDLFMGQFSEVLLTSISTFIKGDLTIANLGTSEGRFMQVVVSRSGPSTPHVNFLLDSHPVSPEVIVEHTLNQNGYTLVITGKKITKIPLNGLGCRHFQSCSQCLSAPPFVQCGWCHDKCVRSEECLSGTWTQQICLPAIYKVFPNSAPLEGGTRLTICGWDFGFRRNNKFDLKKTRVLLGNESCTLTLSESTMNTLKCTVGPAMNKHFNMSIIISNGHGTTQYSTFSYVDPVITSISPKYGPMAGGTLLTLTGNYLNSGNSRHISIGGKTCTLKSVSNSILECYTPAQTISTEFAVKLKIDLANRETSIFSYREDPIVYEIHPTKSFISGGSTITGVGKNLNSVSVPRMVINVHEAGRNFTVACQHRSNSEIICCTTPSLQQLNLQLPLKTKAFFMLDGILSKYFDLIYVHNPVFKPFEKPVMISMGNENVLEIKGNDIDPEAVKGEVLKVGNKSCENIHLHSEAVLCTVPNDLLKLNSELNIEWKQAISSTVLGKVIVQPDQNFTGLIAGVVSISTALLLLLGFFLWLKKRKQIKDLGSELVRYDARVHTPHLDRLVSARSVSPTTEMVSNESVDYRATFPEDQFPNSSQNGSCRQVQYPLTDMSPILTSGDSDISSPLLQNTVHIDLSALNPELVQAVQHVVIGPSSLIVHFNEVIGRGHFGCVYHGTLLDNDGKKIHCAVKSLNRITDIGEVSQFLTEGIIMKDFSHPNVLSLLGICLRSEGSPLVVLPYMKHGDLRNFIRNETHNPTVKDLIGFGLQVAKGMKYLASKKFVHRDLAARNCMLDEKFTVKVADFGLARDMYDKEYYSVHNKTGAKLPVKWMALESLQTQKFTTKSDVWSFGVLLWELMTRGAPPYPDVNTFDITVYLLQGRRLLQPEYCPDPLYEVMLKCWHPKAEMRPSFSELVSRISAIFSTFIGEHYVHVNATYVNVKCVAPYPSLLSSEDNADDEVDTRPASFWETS

EPHA2 = EPHA2 (Homo sapiens, UniProt P29317); assay: HotSpot Kinase Assay, EPHA2
Chain of EPHA2 (P29317 24-976): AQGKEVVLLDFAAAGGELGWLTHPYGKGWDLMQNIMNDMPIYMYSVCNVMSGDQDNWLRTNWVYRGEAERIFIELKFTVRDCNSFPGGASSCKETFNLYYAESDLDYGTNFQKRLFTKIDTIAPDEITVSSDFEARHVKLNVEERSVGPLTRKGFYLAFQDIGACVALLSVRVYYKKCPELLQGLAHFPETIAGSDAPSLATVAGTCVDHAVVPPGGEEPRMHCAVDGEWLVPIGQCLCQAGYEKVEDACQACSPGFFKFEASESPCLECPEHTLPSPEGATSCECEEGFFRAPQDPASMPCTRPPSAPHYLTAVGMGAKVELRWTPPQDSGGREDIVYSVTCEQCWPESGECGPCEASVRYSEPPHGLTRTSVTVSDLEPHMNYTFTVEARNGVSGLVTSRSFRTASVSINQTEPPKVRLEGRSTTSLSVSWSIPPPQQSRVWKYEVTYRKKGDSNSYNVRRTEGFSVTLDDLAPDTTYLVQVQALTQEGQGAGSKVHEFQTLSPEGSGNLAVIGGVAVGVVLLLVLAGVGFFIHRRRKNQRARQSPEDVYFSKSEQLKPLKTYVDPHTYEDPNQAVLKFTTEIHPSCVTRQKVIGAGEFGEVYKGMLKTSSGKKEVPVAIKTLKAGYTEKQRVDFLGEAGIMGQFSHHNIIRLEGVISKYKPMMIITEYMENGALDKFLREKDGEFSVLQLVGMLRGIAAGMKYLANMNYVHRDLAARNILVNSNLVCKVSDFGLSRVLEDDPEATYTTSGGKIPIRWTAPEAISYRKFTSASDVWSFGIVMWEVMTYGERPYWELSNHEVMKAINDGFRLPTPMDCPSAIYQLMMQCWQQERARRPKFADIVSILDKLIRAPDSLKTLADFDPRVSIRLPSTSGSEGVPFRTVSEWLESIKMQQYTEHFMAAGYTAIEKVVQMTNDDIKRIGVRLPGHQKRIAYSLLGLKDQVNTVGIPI
Method: as §1

LOK/STK10 = LOK/STK10 (Homo sapiens, UniProt O94804); assay: HotSpot Kinase Assay, LOK/STK10
TYRO3/SKY = target: T3, TYRO3/SKY (Homo sapiens, UniProt Q06418); assay: HotSpot Kinase Assay, TYRO3/SKY
T3 sequence (Q06418 41-890): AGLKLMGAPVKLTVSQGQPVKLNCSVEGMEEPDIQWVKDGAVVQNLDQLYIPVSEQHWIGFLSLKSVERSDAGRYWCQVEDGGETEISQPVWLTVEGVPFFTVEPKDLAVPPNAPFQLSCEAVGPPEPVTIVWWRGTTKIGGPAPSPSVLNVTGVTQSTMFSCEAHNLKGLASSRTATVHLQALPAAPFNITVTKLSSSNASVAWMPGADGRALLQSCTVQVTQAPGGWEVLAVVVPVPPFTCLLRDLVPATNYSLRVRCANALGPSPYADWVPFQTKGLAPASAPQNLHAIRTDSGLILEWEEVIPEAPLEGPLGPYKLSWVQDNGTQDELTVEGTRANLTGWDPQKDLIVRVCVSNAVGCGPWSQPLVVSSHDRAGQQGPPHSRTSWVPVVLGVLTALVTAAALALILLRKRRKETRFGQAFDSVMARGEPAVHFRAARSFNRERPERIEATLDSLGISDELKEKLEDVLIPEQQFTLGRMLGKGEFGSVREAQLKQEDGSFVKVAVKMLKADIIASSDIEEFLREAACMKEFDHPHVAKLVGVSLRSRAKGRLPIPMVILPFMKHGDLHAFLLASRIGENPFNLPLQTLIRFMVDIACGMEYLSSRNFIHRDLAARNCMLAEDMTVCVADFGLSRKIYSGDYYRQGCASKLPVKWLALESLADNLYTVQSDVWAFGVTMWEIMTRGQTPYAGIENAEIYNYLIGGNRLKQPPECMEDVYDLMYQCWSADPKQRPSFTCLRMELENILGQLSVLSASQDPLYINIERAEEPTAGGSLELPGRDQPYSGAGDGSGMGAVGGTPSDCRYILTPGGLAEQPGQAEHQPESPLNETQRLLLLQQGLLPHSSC
Method: as §1

KDR/VEGFR2 = KDR/VEGFR2 (Homo sapiens, UniProt P35968); assay: HotSpot Kinase Assay, KDR/VEGFR2
Method: as §1

Compound | IC50 (AXL) [nM] | IC50 (FMS) [nM] | IC50 (DDR1) [nM] | IC50 (c-Kit) [nM] | IC50 (c-MER) [nM] | IC50 (c-MET) [nM] | IC50 (EPHA2) [nM] | IC50 (LOK/STK10) [nM] | IC50 (TYRO3/SKY) [nM] | IC50 (KDR/VEGFR2) [nM]
COc1cc2c(Oc3ccc(NC(=O)C4(C(=O)Nc5ccc(F)cc5)CC4)cc3)ccnc2cc1OC(=O)N1C[C@@H]2C[C@H]1CN2C [Compound 2-7] | < 100 | < 100 | < 100 | < 100 | < 100 | < 100 | < 100 | 100 to 1000 | 100 to 1000 | 100 to 1000
COc1cc2c(Oc3ccc(NC(=O)C4(C(=O)Nc5ccc(F)cc5)CC4)cc3F)ccnc2cc1OC(=O)N1CCN(C)C[C@H]1C [Compound 3-5, 4-(2-fluoro-4-(1-((4-fluorophenyl)carbamoyl)cyclopropane-1-carboxamido)phenoxy)-6-methoxyquinolin-7-yl (R)-2,4-dimethylpiperazine-1-carboxylate] | < 100 | 100 to 1000 | < 100 | < 100 | < 100 | < 100 | < 100 | 100 to 1000 | 100 to 1000 | < 100
COc1cc2c(Oc3ccc(NC(=O)C4(C(=O)Nc5ccc(F)cc5)CC4)cc3F)ccnc2cc1OC(=O)N1CCN(C)C[C@@H]1C [Compound 3-6] | < 100 | 100 to 1000 | < 100 | 100 to 1000 | < 100 | < 100 | < 100 | 100 to 1000 | 100 to 1000 | 100 to 1000
COc1cc2nccc(Oc3ccc(NC(=O)C4(C(=O)Nc5ccc(F)cc5)CC4)cc3)c2cc1OC(=O)N1CCN(C)CC1 [Compound 5-10] | < 100 | < 100 | < 100 | < 100 | < 100 | < 100 | < 100 | 100 to 1000 | < 100 | < 100
COc1cc2c(Oc3ccc(NC(=O)C4(C(=O)Nc5ccc(F)cc5)CC4)cc3)ccnc2cc1OC(=O)N1[C@H](C)CNC[C@@H]1C [Compound 6-2] | < 100 | 100 to 1000 | < 100 | < 100 | 100 to 1000 | 100 to 1000 | 100 to 1000 | 100 to 1000 | 100 to 1000 | 100 to 1000
COc1cc2c(Oc3ccc(NC(=O)C4(C(=O)Nc5ccc(F)cc5)CC4)cc3)ccnc2cc1OC(=O)N1[C@H](C)CN(C)C[C@@H]1C [Compound 6-3] | < 100 | 100 to 1000 | < 100 | < 100 | < 100 | 100 to 1000 | 100 to 1000 | 100 to 1000 | 100 to 1000 | 100 to 1000
COc1cc2c(Oc3ccc(NC(=O)C4(C(=O)Nc5ccc(F)cc5)CC4)cc3)ccnc2cc1OC(=O)N1CCNC[C@H]1C [Compound 6-4] | < 100 | < 100 | < 100 | < 100 | < 100 | < 100 | 100 to 1000 | 100 to 1000 | 100 to 1000 | 100 to 1000
COc1cc2c(Oc3ccc(NC(=O)C4(C(=O)Nc5ccc(F)cc5)CC4)cc3)ccnc2cc1OC(=O)N1CCNCC1(C)C [Compound 6-5] | < 100 | 100 to 1000 | < 100 | < 100 | < 100 | < 100 | 100 to 1000 | 100 to 1000 | 100 to 1000 | > 1000
COc1cc2c(Oc3ccc(NC(=O)C4(C(=O)Nc5ccc(F)cc5)CC4)cc3)ccnc2cc1OC(=O)N1CCN(C)CC1(C)C [Compound 6-6] | < 100 | 100 to 1000 | < 100 | < 100 | < 100 | 100 to 1000 | 100 to 1000 | 100 to 1000 | 100 to 1000 | 100 to 1000
COc1cc2nccc(Oc3ccc(NC(=O)C4(C(=O)Nc5ccc(F)cc5)CC4)cc3)c2cc1OC(=O)N1CCNC[C@H]1C [Compound 7-2] | < 100 | < 100 | < 100 | < 100 | < 100 | < 100 | < 100 | < 100 | < 100 | < 100
COc1cc2nccc(Oc3ccc(NC(=O)C4(C(=O)Nc5ccc(F)cc5)CC4)cc3)c2cc1OC(=O)N1CCN(C)C[C@H]1C [Compound 7-3] | < 100 | < 100 | < 100 | < 100 | < 100 | < 100 | 100 to 1000 | 100 to 1000 | < 100 | < 100
COc1cc2nccc(Oc3ccc(NC(=O)C4(C(=O)Nc5ccc(F)cc5)CC4)cc3)c2cc1OC(=O)N1[C@H](C)CNC[C@@H]1C [Compound 7-4] | < 100 | < 100 | < 100 | < 100 | < 100 | < 100 | 100 to 1000 | 100 to 1000 | < 100 | < 100
